Ten molecules from patent US20240350422A1, “FORMULATION PROCESS FOR CPMV NANOPARTICLES” (The Regents of the University of California, priority 2021, published 2024) can be followed below.

Data set [1] can be described thus: Observed water / reaction buffer solubility of ligands. The following applies: for Observed water solubility: Table 1; for solubility in the reaction buffer: 0.01 M potassium phosphate reaction buffer (pH 7.4).
Data set [2] in a line: Dynamic light scattering (DLS) of plant VNPs and conjugates. The data set is classed as physicochemical. The following applies: purified conjugate particles; (+F127) = COAT/FORMCOAT, (−F127) = uncoated control. How it is done:
DLS. The hydrodynamic diameter of native and conjugated plant VNPs was determined by diluting the samples to 1 mg/mL in 0.01 M potassium phosphate buffer (pH 7.4) followed by measurement using a Zetasizer Nano ZSP/Zen5600 instrument (Malvern Panalytical, Malvern, UK). The particle length was calculated as the weighted mean of the intensity distribution.

Data set [3] is described as follows: Aggregation / dispersion of conjugate particles (photograph, DLS, TEM). The data set is classed as physicochemical. The settings on record: pH 7.4.

Where no end group is shown, it is not given here.

With CSGGGDWFKAFYDKVAEKFKEAF [ApoAI-4FN], the Observed water solubility entry in data set [1] is listed as “Good”.
Turning to CGGGVFLQKYPHTHLVHQA [Myostatin 1], the Observed water solubility entry in data set [1] was “Good”.
Consider `CC[C@H](C)[C@H](NC(=O)[C@H](Cc1ccccc1)NC(=O)[C@H](CO)NC(=O)[C@H](CCCNC(=N)N)NC(=O)[C@H](CCCCN)NC(=O)[C@H](CO)NC(=O)[C@@H]1CCCN1C(=O)[C@H](CCCCN)NC(=O)[C@H](CO)NC(=O)[C@@H]1CCCN1C(=O)CNC(=O)CNC(=O)CNC(=O)[C@@H](N)CS)C(=O)N[C@@H](CCC(=O)O)C(=O)N[C@@H](CC(=O)O)C(=O)N[C@@H](CC(C)C)C(=O)N[C@@H](CC(C)C)C(=O)N[C@@H](Cc1ccccc1)C(=O)N[C@@H](CC(N)=O)C(=O)N[C@@H](CCCCN)C(=O)N[C@H](C(=O)O)C(C)C` [COVID-826], for which the Observed water solubility result in data set [1] was “Good”.
Take `CC(C)C[C@H](NC(=O)[C@H](Cc1ccc(O)cc1)NC(=O)[C@H](CC(N)=O)NC(=O)[C@H](Cc1ccc(O)cc1)NC(=O)[C@H](CC(N)=O)NC(=O)CNC(=O)CNC(=O)[C@@H](NC(=O)[C@H](CCCCN)NC(=O)[C@H](CO)NC(=O)[C@H](CC(=O)O)NC(=O)[C@H](CC(C)C)NC(=O)[C@H](CC(N)=O)NC(=O)[C@H](CC(N)=O)NC(=O)CNC(=O)CNC(=O)CNC(=O)[C@@H](N)CS)C(C)C)C(=O)N[C@@H](Cc1ccc(O)cc1)C(=O)N[C@@H](CCCNC(=N)N)C(=O)O` [COVID-454]: in data set [1], the “solubility in the reaction buffer” value is reported as “insoluble” and the Observed water solubility result is recorded as “Poor”.
`CSCC[C@H](NC(=O)[C@H](Cc1c[nH]c2ccccc12)NC(=O)[C@H](CO)NC(=O)[C@H](CCCCN)NC(=O)[C@H](CC(N)=O)NC(=O)[C@H](CC(N)=O)NC(=O)[C@H](CCCCN)NC(=O)[C@H](Cc1c[nH]cn1)NC(=O)[C@H](Cc1ccc(O)cc1)NC(=O)[C@H](Cc1ccc(O)cc1)NC(=O)[C@@H](NC(=O)CNC(=O)[C@H](CC(C)C)NC(=O)[C@H](Cc1ccccc1)NC(=O)[C@@H]1CCCN1C(=O)CNC(=O)CNC(=O)CNC(=O)[C@@H](N)CS)C(C)C)C(=O)O` [COVID-153]: in data set [1], the “solubility in the reaction buffer” value is given as “insoluble” and the Observed water solubility entry was “Poor”.
Regarding YQDMVLWKDVFRKNNQLAPVGPSLC [CH401-Rat], in data set [1], the “solubility in the reaction buffer” value is reported as “insoluble” and the Observed water solubility entry was “Poor”.
Consider CSGGGWGWSLSHGYQVK [ScG3], for which the Observed water solubility result in data set [1] is reported as “Good”.
Consider `CC[C@H](C)[C@H](NC(=O)[C@H](Cc1c[nH]c2ccccc12)NC(=O)CNC(=O)[C@H](CCCNC(=N)N)NC(=O)[C@@H](NC(=O)[C@@H](NC(=O)[C@H](CC(N)=O)NC(=O)[C@H](CO)NC(=O)[C@H](CCCCN)NC(=O)[C@H](CCC(=O)O)NC(=O)[C@@H](NC(=O)[C@H](CO)NC(=O)[C@H](C)NC(=O)[C@H](Cc1ccccc1)NC(=O)CNC(=O)CNC(=O)CNC(=O)[C@@H](N)CS)[C@@H](C)O)[C@@H](C)CC)[C@@H](C)CC)C(=O)N[C@@H](Cc1ccccc1)C(=O)O` [COVID-106], for which, in data set [1], the “solubility in the reaction buffer” value was “insoluble” and the Observed water solubility result is reported as “Poor”.

B1: TMV-Cy5.5 (+F127): Cy5.5 conjugated to TMV lysines via NHS ester, COAT method; Table 4 row Cy5.5 NHS (+F127) (conjugate, UniProt P69687 2-159, looked up)
Capsid protein: SYSITTPSQFVFLSSAWADPIELINLCTNALGNQFQTQQARTVVQRQFSEVWKPSPQVTVRFPDSDFKVYRYNAVLDPLVTALLGAFDTRNRIIEVENQANPTTAETLDATRRVDDATVAIRSAINNLIVELIRGTGSYNRSSFESSSGLVWTSGPAT
modifications: Cy5.5 dye, F127 coated virion
In data set [2], B1 gave a PDI of 0.236 and a Z-average of 277.6 nm. Moreover, the “aggregation / dispersion of the particles” value in data set [3] was “dispersed and soluble, with no visible signs of aggregation”.

B2: TMV-Cy5.5 (−F127): Cy5.5 conjugated to uncoated TMV, control; Table 4 row Cy5.5 NHS (−F127) (conjugate, UniProt P69687 2-159, looked up)
Capsid protein: SYSITTPSQFVFLSSAWADPIELINLCTNALGNQFQTQQARTVVQRQFSEVWKPSPQVTVRFPDSDFKVYRYNAVLDPLVTALLGAFDTRNRIIEVENQANPTTAETLDATRRVDDATVAIRSAINNLIVELIRGTGSYNRSSFESSSGLVWTSGPAT
modifications: Cy5.5 dye on whole virion
B2: in data set [2], the PDI is recorded as 0.749 and the Z-average amounted to 436.8 nm. In data set [3], the “aggregation / dispersion of the particles” value is “prone to aggregation”.
